{"source": "patent US8350062B2", "about": "“Synthesis and anticancer activity of new actin-targeting small-molecule agents” (priority 2009, dated 2013)", "key": {"G-actin [1]": {"biological_target": "T1, G-actin (Oryctolagus cuniculus, UniProt P68135)", "T1 construct": "Actin was purified from rabbit muscle acetone powder; tissue Pel-Freez Biologicals (acetone powder); host or cells: rabbit muscle acetone powder", "experiment": "Isothermal titration calorimetry, binding to monomeric actin", "parameters": "species or system rabbit", "protocol": "Isothermal Titration Calorimetry. A solution of rabbit skeletal muscle actin (5-10 μM) was titrated with bistramide A or its analog (50-100 μM) at 25° C. in buffer containing 2 mM Tris HCl, pH 8.0, 0.2 mM CaCl2, 0.01% NaN3, 0.2 mM ATP, 0.2 mM 2-mercaptoethanol. Dissociation constants were calculated from the binding curve using Origin analytical software (OriginLab) with the binding model involving a single set of identical sites"}, "filamentous actin": {"biological_target": "filamentous actin (Oryctolagus cuniculus, UniProt P68135)", "experiment": "TIRF microscopy of actin filament severing and depolymerization", "format": "biochemical, rabbit", "parameters": "Actin was purified from rabbit muscle acetone powder; tissue Pel-Freez Biologicals (acetone powder); host or cells: rabbit muscle acetone powder", "from_the_text": "To gain further insight into the mode of action of bistramide A, we next investigated the interaction of the natural product and its analogs with filamentous actin. […] Similar observations have been reported for several other actin-binding natural products. However, this effect could provide only limited mechanistic information and may primarily reflect the binding of a small molecule to the filaments in close proximity to the dye and quenching of pyrene fluorescence, which could be independent of the rates of actin depolymerization. Some proteins like myosin and Actin Depolymerizing Factor (ADF)/Cofilin are known to do so. Total internal reflection fluorescence (TIRF) microscopy has recently emerged as a powerful tool to investigate actin filament dynamics and its regulation by several actin-binding proteins, as well as latrunculin A, which is […] depolymerizing filamentous actin in vitro. Thus, we decided to employ TIRF microscopy to observe in real time the effects of bistramide-based compounds on actin polymerization in vitro. We believe this is the first instance where TIRF microscopy has been utilized to study the severing of actin filaments by a small molecule. We polymerized G-actin containing 25% of tetramethylrhodamine-functionalized and 10% of biotin-functionalized actin. The resulting actin filaments were immobilized onto the streptavidin-coated glass slides (in a flow cell). Analogs 1-8 were flown through the flow cell and imaged by time-lapse TIRF microscopy.\nTotal Internal Reflection Fluorescence Microscopy. Actin filament severing was studied using a custom-built total internal reflection fluorescence microscope. Images were collected with a 100×, 1.45 NA objective (Olympus) and an EMCCD camera (iXon, Andor Technologies). Glass flow cell (6 μl volume) was washed with 0.25 mg/ml neutravidin in F-buffer (50 mM KCl, 1 mM MgCl2, 1 mM EGTA, 10 mM imidiazole, 2 mM ATP, 0.2 mM 2-mercaptoethanol, 2 min) and blocked with 1 mg/ml BSA in F-buffer (2 min). Ten microliters of 200 nM Mg^2+-F-actin (10% biotinylated, 25% labeled with maleimide-6-tetramethylrhodamine) in TIRF-buffer (50 mM KCl, 1 mM MgCl2, 1 mM EGTA, 10 mM imidiazole, 2 mM ATP, 4.5 mg/ml glucose, 0.5% 2-mercaptoethanol, 4.3 mg/ml glucose oxidase, 0.7 mg/ml catalase) was added to the flowcell and incubated for 2 min. The chamber was rinsed with TIRF-buffer and imaged. Compounds were freshly diluted from their DMSO stock solutions in TIRF-buffer and were added to the chamber immediately after the start of each experiment. Images were collected at 0.2-s exposures every 3 s for 200 frames. For kinetics studies, movies of suitable length were obtained for each of the analog concentrations. Analysis was performed using ImageJ."}, "A549 cells": {"system": "A549 cells", "experiment": "Cell viability assay (CellTiter-Glo), growth inhibition of A549 cells", "format": "cell-based, human", "conditions": "Homo sapiens, A549, 48 h, 48 h incubation", "protocol": "Cell Viability Assays. All assays were performed using at least three replicate wells for each concentration tested. Original 10-25 mM DMSO stock solution of bistramide A or its analogs was diluted to 100 μM for analogs 4-8, 10 μM for analog 3, 5 μM for analog 2 and 1 μM for bistramide A (1) with F-12K cell culture media supplemented with 10% fetal bovine serum, 100 I.U./ml penicillin, 100 μg/ml streptomycin and 2 mM L-glutamine. Two-fold serial dilutions were performed and used for cell-based assays. A549 cells were grown in 96-well white plates at the density of 1,000 cells per well in 100 μl F-12K cell culture media. Cells were allowed to attach over 24 h and treated with 30 μl of the drug solution and incubated further for 48 h. After incubation, cell viability was determined using luminescence-based commercial kit (CellTiter-Glo, Promega) and luminescence measured using a Wallac Victor 3 plate reader. To measure cell growth inhibition, viability assays were performed twice: at initial time point T0 and after 48 h incubation (T48). Change in the number of viable cells was measured, and GI50 was calculated from sigmoidal plots. For analog 10, growth of A549 and PC3 cells was monitored over 96 h following addition of the drug. 100 μM was the highest concentration tested. At no point did the total DMSO conc. exceed 1%."}, "G-actin [2]": {"biological_target": "T1, G-actin", "experiment": "Interaction with actin by MALDI-TOF (covalent modification)", "format": "biochemical, rabbit", "conditions": "1:1 actin-drug complex, 30 min", "protocol": "Interaction Of Bistramide-Based Compounds With Actin By MALDI-TOF. A 1:1 actin-drug complex was incubated for 30 min in 2 mM Tris-HCl, pH 8.0, 0.2 mM CaCl2, 0.01% NaN3, 0.2 mM ATP, 1 mM 2-mercaptoethanol, diluted with deionized water to 26 μM and mixed with an equal volume of a solution of 10 mg/ml sinapinic acid in 50% CH3CN— 0.1% TFA. MALDI spectra were obtained on a Voyager-DE PRO biospectrometry workstation."}, "F-actin in A549 cells": {"system": "F-actin in A549 cells", "experiment": "Fluorescent visualization of F-actin in A549 cells (Alexa Fluor 488 phalloidin)", "format": "cell-based, human", "conditions": "2 h incubation", "protocol": "The presence of the enone increased the severing efficiency of the analogs three-fold. […] We determined whether it was the depletion of actin filaments by analogs 2-5 which was responsible for the growth inhibition of A549 cells. Each of the compounds was incubated with A549 cells for 2 h at a concentration that exceeded the GI50 value by a factor of 5. The cells were then fixed, permeabilized and filamentous actin was visualized by fluorescence microscopy following Alexa Fluor 488 phalloidin staining. […] They induced depolymerization at 150 nM for bistramide A (1), 500 nM for analog 2 and 2 μM for analog 3. Analogs 4 and 5 induced depolymerization of actin only at concentrations as high as 100 μM. […] This observation was consistent with the enhanced cell-based activity of the compounds containing the C(1)-C(4) enone moiety.\nFluorescent Visualization Of F-Actin In Cells. A549 cells grown on coverslips were incubated with analogs 4-8 (100 μM) analog 3 (2 μM) or analog 2 (500 nM) or bistramide A (150 nM) in F-12K cell culture medium for 2 h, fixed with 3% formaldehyde in PBS at 25° C. for 5 min and permeabilized with 0.1% Triton X-100 at 25° C. for 10 min. After washing with PBS, coverslips were stained with Alexa Fluor 488 Phalloidin and visualized by fluorescence microscopy."}, "[3]": {"system": "non-small cell broncho-pulmonary carcinoma xenografts", "conditions": "mouse, in vivo; cited from earlier work"}, "[4]": {"conditions": "mouse, in vivo; cited from earlier work"}}, "data": [{"smiles": "C/C=C/C(=O)C[C@@H]1CCC(C)C(CC(=O)NC[C@H](O)[C@H](C)C(=O)NCCC[C@H]2O[C@@]3(CCC[C@@H](CC[C@H](C)/C=C(\\C)C(C)O)O3)CCC2C)O1", "note": "(some centres unmarked) [Bistramide A (1), bistramide A, reference compound]", "values": [{"measurement": "Kd", "setting": "G-actin [1]", "value": 7, "unit": "nM"}, {"measurement": "effect on filamentous actin", "setting": "filamentous actin; 750 nM", "value": "rapid filament depletion"}, {"measurement": "No. of breaks per 100 μm", "setting": "filamentous actin; compound at 0.75 μM", "value": 40.4, "unit": "per 100 μm"}, {"measurement": "Pointed-end depolymerization rate", "setting": "filamentous actin; compound at 0.75 μM, standard deviations 0.1-0.3 subunits/s", "value": 0.49, "unit": "subunits/s"}, {"measurement": "Barbed-end depolymerization rate", "setting": "filamentous actin; compound at 0.75 μM, standard deviations 0.4-0.6 subunits/s", "value": 1.88, "unit": "subunits/s"}, {"measurement": "GI50", "setting": "A549 cells", "value": 20, "unit": "nM"}, {"measurement": "GI50", "setting": "A549 cells; values of the text", "value": 20.4, "unit": "nM"}, {"measurement": "covalent modification of G-actin", "setting": "G-actin [2]", "value": "covalently modified G-actin"}, {"measurement": "concentration inducing actin depolymerization in A549 cells", "setting": "F-actin in A549 cells", "value": 150, "unit": "nM"}, {"measurement": "inhibition of tumor growth in xenograft model", "setting": "[3]", "value": "ineffective at reducing tumor growth"}, {"measurement": "general toxicity", "setting": "[4]", "value": "high general toxicity"}]}]}
